Data: US20180093956A1, “SUBSTITUTED PHTHALAZINES” (AbbVie Inc., priority 2015, published 2018)

target: SUV420H1 enzyme (Homo sapiens, UniProt Q4FZB7); assay: TR-FRET SAH SUV420H1 enzyme inhibition assay; type: biochemical; settings: Histone Peptide H4(8-30)me1 and SAM, TR-FRET detection of SAH, read-out: TR-FRET SAH_SUV420H1 IC50
Description: Test compounds were dispensed by a Labcyte Echo in 384-well low volume assay plates with 3-fold serial dilutions from 50 μM to 0.00075 μM. 5 μL of SUV420H1 enzyme (Abbvie) at 90 nM was added to all wells except for the no enzyme control wells and incubated for 30 minutes at room temperature before 5 μL of Histone Peptide H4(8-30)me1 (Anaspec) at 5 μM and SAM at 4 μM was added to all wells. The plates were incubated in a humidified chamber overnight at room temp and then 10 μL of the detection reagent that contained RIPA buffer (50 mM Tris-HCl, pH 8.0, 150 mM sodium chloride, 1.0% Igepal CA-630 (NP-40), 0.5% sodium deoxycholate and 0.1% sodium dodecyl sulfate) (Sigma) with 2 nM of Terbium chelate anti S-adenosyl-L-homocysteine (SAH) (Abbvie) antibody and Oregon Green labeled SAH at 4 nM was added. The plates were further incubated for 4 hours at room temperature. The plates were read in a Perkin Elmer Envision using a TR-FRET protocol with Excitation set at 335 nm and Emission at 520 and 495 nm. To generate dose response curves the data is normalized to percent inhibition by setting the average of the plus and minus enzyme control wells to 0% and 100% inhibition respectively. The ICso values for the compounds are generated by fitting the normalized data with Accelrys Assay Explorer 3.3 to a sigmoidal curve model using […], Y=(100*x^n)/(K^n+x^n), where Y is the measured response, x is the compound concentration, n is the Hill Slope and K is the IC50 and the lower and higher asymptotes are constrained to 0 and 100 respectively.

Sequence of SUV420H1 enzyme (Q4FZB7 whole entry): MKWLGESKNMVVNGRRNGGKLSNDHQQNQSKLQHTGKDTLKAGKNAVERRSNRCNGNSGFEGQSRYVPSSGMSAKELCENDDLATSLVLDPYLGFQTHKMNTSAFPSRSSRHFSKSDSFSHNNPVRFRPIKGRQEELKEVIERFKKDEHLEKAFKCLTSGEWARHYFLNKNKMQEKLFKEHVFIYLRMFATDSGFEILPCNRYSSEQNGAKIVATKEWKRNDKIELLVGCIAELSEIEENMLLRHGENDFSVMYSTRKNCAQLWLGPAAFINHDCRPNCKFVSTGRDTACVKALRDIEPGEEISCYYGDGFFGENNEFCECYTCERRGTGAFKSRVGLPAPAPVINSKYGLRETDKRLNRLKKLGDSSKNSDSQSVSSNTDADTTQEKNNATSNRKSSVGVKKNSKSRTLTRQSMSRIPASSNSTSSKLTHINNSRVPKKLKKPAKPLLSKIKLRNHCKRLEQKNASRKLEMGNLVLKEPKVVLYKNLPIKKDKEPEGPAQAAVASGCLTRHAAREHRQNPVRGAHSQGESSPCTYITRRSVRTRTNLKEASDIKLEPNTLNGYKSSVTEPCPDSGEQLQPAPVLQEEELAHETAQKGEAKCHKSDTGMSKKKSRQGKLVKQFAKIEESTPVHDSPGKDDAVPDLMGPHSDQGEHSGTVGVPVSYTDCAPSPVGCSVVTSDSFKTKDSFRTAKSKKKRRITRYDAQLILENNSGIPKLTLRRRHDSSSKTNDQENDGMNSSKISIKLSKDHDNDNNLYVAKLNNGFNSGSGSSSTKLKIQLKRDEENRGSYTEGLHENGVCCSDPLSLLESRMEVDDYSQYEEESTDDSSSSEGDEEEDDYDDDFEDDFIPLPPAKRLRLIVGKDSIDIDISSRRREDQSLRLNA

| Molecule | IC50 [nM] |
| --- | --- |
| NC1CCN(c2ccc(-c3nnc(NC4CCCC4)c4cc(Cl)c(Cl)cc34)cn2)C1 (stereo not shown) [Example 33, 4-[6-(3-aminopyrrolidin-1-yl)pyridin-3-yl]-6,7-dichloro-N-cyclopentylphthalazin-1-amine] | 1240 |
| CN(CCO)C(=O)c1nnc(NC2CCCC2)c2cc(Cl)c(Cl)cc12 [Example 46, 6,7-dichloro-4-(cyclopentylamino)-N-(2-hydroxyethyl)-N-methylphthalazine-1-carboxamide] | 5460 |
| O=C(c1nnc(NC2CCCC2)c2cc(Cl)c(Cl)cc12)N1CCC(O)CC1 [Example 52, [6,7-dichloro-4-(cyclopentylamino)phthalazin-1-yl](4-hydroxypiperidin-1-yl)methanone] | 12800 |
| O=C1CCC(C(=O)N2CC=C(c3nnc(NC4CCCC4)c4cc(Cl)c(Cl)cc34)CC2)C1 (stereo not shown) [Example 81, 3-({4-[6,7-dichloro-4-(cyclopentylamino)phthalazin-1-yl]-3,6-dihydropyridin-1(2H)-yl}carbonyl)cyclopentanone] | 2230 |
| Clc1cc2c(NC3CCCC3)nnc(-c3ccccc3)c2cc1Cl [Example 2, 6,7-dichloro-N-cyclopentyl-4-phenylphthalazin-1-amine] | 28900 |
| CN1CCN(c2cc(-c3nnc(NC4CCCC4)c4cc(Cl)c(Cl)cc34)ccn2)CC1 [Example 16, 6,7-dichloro-N-cyclopentyl-4-[2-(4-methylpiperazin-1-yl)pyridin-4-yl]phthalazin-1-amine] | 8350 |
| Clc1cc2c(NC3CCCC3)nnc(-c3ccc(CN4CCOCC4)cc3)c2cc1Cl [Example 14, 6,7-dichloro-N-cyclopentyl-4-[4-(morpholin-4-ylmethyl)phenyl]phthalazin-1-amine] | 19100 |
| CCNC(=O)c1nnc(NC2CCCC2)c2cc(Cl)c(Cl)cc12 [Example 45, 6,7-dichloro-4-(cyclopentylamino)-N-ethylphthalazine-1-carboxamide] | 197 |
| CS(=O)(=O)CC(=O)N1CC=C(c2nnc(NC3CCCC3)c3cc(Cl)c(Cl)cc23)CC1 [Example 82, 1-{4-[6,7-dichloro-4-(cyclopentylamino)phthalazin-1-yl]-3,6-dihydropyridin-1(2H)-yl}-2-(methylsulfonyl)ethanone] | 681 |
| CN1CCN(c2ccc(-c3nnc(NC4CCCC4)c4cc(Cl)c(Cl)cc34)cn2)CC1 [Example 21, 6,7-dichloro-N-cyclopentyl-4-[6-(4-methylpiperazin-1-yl)pyridin-3-yl]phthalazin-1-amine] | 1460 |
| Clc1cc2c(NC3CCCC3)nnc(N3CCOCC3)c2cc1Cl [Example 10, 6,7-dichloro-N-cyclopentyl-4-(morpholin-4-yl)phthalazin-1-amine] | 48400 |
| O=C(c1nnc(NC2CCCC2)c2cc(Cl)c(Cl)cc12)N1CCCC1 [Example 47, [6,7-dichloro-4-(cyclopentylamino)phthalazin-1-yl](pyrrolidin-1-yl)methanone] | 3780 |
| 6,7-dichloro-4-(cyclopentylamino)phthalazine-1-carboxylic acid [Example 38] | 8680 |
| CN(CCO)c1cc(-c2nnc(NC3CCCC3)c3cc(Cl)c(Cl)cc23)ccn1 [Example 35, 2-[{4-[6,7-dichloro-4-(cyclopentylamino)phthalazin-1-yl]pyridin-2-yl}(methyl)amino]ethanol] | 808 |
| O=C(Cn1cc(-c2nnc(NC3CCCC3)c3cc(Cl)c(Cl)cc23)cn1)N1CCCC1 [Example 58, 2-{4-[6,7-dichloro-4-(cyclopentylamino)phthalazin-1-yl]-1H-pyrazol-1-yl}-1-(pyrrolidin-1-yl)ethanone] | 6010 |
| O=C(c1nnc(NC2CCCC2)c2cc(Cl)c(Cl)cc12)N1CCC(O)C1 (stereo not shown) [Example 48, [6,7-dichloro-4-(cyclopentylamino)phthalazin-1-yl](3-hydroxypyrrolidin-1-yl)methanone] | 4160 |
| OC1CCN(c2ccc(-c3nnc(NC4CCCC4)c4cc(Cl)c(Cl)cc34)cn2)CC1 [Example 28, 1-{5-[6,7-dichloro-4-(cyclopentylamino)phthalazin-1-yl]pyridin-2-yl}piperidin-4-ol] | 572 |
| OCCNc1cc(-c2nnc(NC3CCCC3)c3cc(Cl)c(Cl)cc23)ccn1 [Example 39, 2-({4-[6,7-dichloro-4-(cyclopentylamino)phthalazin-1-yl]pyridin-2-yl}amino)ethanol] | 3490 |
| CN1CCN(C(=O)c2nnc(NC3CCCC3)c3cc(Cl)c(Cl)cc23)CC1 [Example 49, [6,7-dichloro-4-(cyclopentylamino)phthalazin-1-yl](4-methylpiperazin-1-yl)methanone] | 6090 |

| Molecule | IC50 [nM] |
| --- | --- |
| O[C@@H]1CC[C@H](Nc2nnc(Cl)c3cc(Cl)c(Cl)cc23)C1 (racemic) [Example 13, rac-(1R,3S)-3-[(4,6,7-trichlorophthalazin-1-yl)amino]cyclopentanol] | 2630 |
| OC1CCN(c2ccc(-c3nnc(NC4CCCC4)c4cc(Cl)c(Cl)cc34)cn2)C1 (stereo not shown) [Example 34, 1-{5-[6,7-dichloro-4-(cyclopentylamino)phthalazin-1-yl]pyridin-2-yl}pyrrolidin-3-ol] | 2730 |
| Fc1cc(-c2nnc(NC3CCCC3)c3cc(Cl)c(Cl)cc23)ccn1 [Example 12, 6,7-dichloro-N-cyclopentyl-4-(2-fluoropyridin-4-yl)phthalazin-1-amine] | 827 |
| Clc1cc2c(NC3CCCC3)nnc(-c3ccc(N4CCOCC4)nc3)c2cc1Cl [Example 22, 6,7-dichloro-N-cyclopentyl-4-[6-(morpholin-4-yl)pyridin-3-yl]phthalazin-1-amine] | 1010 |
| O=C(Cn1cc(-c2nnc(NC3CCCC3)c3cc(Cl)c(Cl)cc23)cn1)N1CCS(=O)(=O)CC1 [Example 63, 2-{4-[6,7-dichloro-4-(cyclopentylamino)phthalazin-1-yl]-1H-pyrazol-1-yl}-1-(1,1-dioxidothiomorpholin-4-yl)ethanone] | 208 |
| O=C(C1CCC(O)C1)N1CC=C(c2nnc(NC3CCCC3)c3cc(Cl)c(Cl)cc23)CC1 (stereo not shown) [Example 84, {4-[6,7-dichloro-4-(cyclopentylamino)phthalazin-1-yl]-3,6-dihydropyridin-1(2H)-yl}(3-hydroxycyclopentyl)methanone] | 688 |
| Clc1cc2c(NC3CCCC3)nnc(-c3ccnc(N4CCCC4)c3)c2cc1Cl [Example 15, 6,7-dichloro-N-cyclopentyl-4-[2-(pyrrolidin-1-yl)pyridin-4-yl]phthalazin-1-amine] | > 50000 |
| O=C(Cn1cc(-c2nnc(NC3CCCC3)c3cc(Cl)c(Cl)cc23)cn1)N1CCC(O)C1 (stereo not shown) [Example 59, 2-{4-[6,7-dichloro-4-(cyclopentylamino)phthalazin-1-yl]-1H-pyrazol-1-yl}-1-(3-hydroxypyrrolidin-1-yl)ethanone] | 766 |
| Clc1cc2c(NC3CCCC3)nnc(-c3ccc(N4CCCC4)nc3)c2cc1Cl [Example 31, 6,7-dichloro-N-cyclopentyl-4-[6-(pyrrolidin-1-yl)pyridin-3-yl]phthalazin-1-amine] | 2740 |
| O=C(O)Cn1cc(-c2nnc(NC3CCCC3)c3cc(Cl)c(Cl)cc23)cn1 [Example 44, {4-[6,7-dichloro-4-(cyclopentylamino)phthalazin-1-yl]-1H-pyrazol-1-yl}acetic acid] | 255 |
| Clc1cc2c(NC3CCCC3)nnc(C3=CCNCC3)c2cc1Cl [Example 24, 6,7-dichloro-N-cyclopentyl-4-(1,2,3,6-tetrahydropyridin-4-yl)phthalazin-1-amine] | 1280 |
| Clc1cc2c(NC3CCCC3)nnc(N3CCCC3)c2cc1Cl [Example 11, 6,7-dichloro-N-cyclopentyl-4-(pyrrolidin-1-yl)phthalazin-1-amine] | > 50000 |
| Clc1cc2c(NC3CCCC3)nnc(-c3ccnc(N4CCOCC4)c3)c2cc1Cl [Example 17, 6,7-dichloro-N-cyclopentyl-4-[2-(morpholin-4-yl)pyridin-4-yl]phthalazin-1-amine] | 7380 |
| O=C(Nc1ccccc1)c1nnc(NC2CCCC2)c2cc(Cl)c(Cl)cc12 [Example 53, 6,7-dichloro-4-(cyclopentylamino)-N-phenylphthalazine-1-carboxamide] | 1340 |
| CN(C)c1cc(-c2nnc(NC3CCCC3)c3cc(Cl)c(Cl)cc23)ccn1 [Example 32, 6,7-dichloro-N-cyclopentyl-4-[2-(dimethylamino)pyridin-4-yl]phthalazin-1-amine] | 11200 |
| Clc1cc2c(NC3CCCC3)nnc(-c3ccc(N4CCNCC4)nc3)c2cc1Cl [Example 27, 6,7-dichloro-N-cyclopentyl-4-[6-(piperazin-1-yl)pyridin-3-yl]phthalazin-1-amine] | 1320 |
| O=C(c1nnc(NC2CCCC2)c2cc(Cl)c(Cl)cc12)N1CCOCC1 [Example 51, [6,7-dichloro-4-(cyclopentylamino)phthalazin-1-yl](morpholin-4-yl)methanone] | 8210 |
| O=S(=O)(C1CC1)N1CC=C(c2nnc(NC3CCCC3)c3cc(Cl)c(Cl)cc23)CC1 [Example 68, 6,7-dichloro-N-cyclopentyl-4-[1-(cyclopropylsulfonyl)-1,2,3,6-tetrahydropyridin-4-yl]phthalazin-1-amine] | 453 |
